Among the data in ChEMBL document CHEMBL1121748, “Antimycotic imidazoles. 5. Synthesis and antimycotic properties of 1-[[2-aryl-4-(arylalkyl)-1,3-dioxolan-2-yl]methyl]-1H-imidazoles” (1981) are Inhibition and Ratio values, retold here.

SMILES strings stand for the structures.

The subject of experiment [1] is Staphylococcus haemolyticus. The experiment is described as follows: Antibacterial against Staphylococcus hemolyticus. The class given is functional.
Experiment [2] deals with Candida albicans. Put plainly: Antifungal activity against Candida albicans. It counts as functional.
For experiment [3], the system named is Saprolegnia. Put plainly: compound was tested for antifungal activity against Saprolegnia species. It counts as functional.
Experiment [4] deals with Candida tropicalis. Put plainly: Antifungal activity against Candida tropicalis. The class given is functional.
The test system of experiment [5] is Erysipelothrix rhusiopathiae. Put plainly: Antibacterial activity against Erysipelothrix insidiosa. It counts as functional.
In experiment [6] the test system is Sporothrix schenckii. The experiment is described as follows: Antifungal activity against Sporothrix schenck ii. The class given is functional.
In experiment [7] the test system is Cryptococcus neoformans. Put plainly: Antifungal activity against Cryptococcus neoformans. It counts as functional.
Experiment [8] relates to Phialophora verrucosa. The experiment is described as follows: Antifungal activity against Phialophora verrucosa. The class given is functional.
The test system of experiment [9] is Trichophyton rubrum. The experiment is described as follows: Antifungal activity against Trichophyton rubrum. The class given is functional.
Experiment [10] relates to Mucor. The experiment is described as follows: Antifungal activity against Mucor species. The class given is functional.
The nature of experiment [11]: Ratio of animals cured to that of animals infected, tested in vivo for antifungal activity against cutaneous candidosis in guinea pig; 0/2. Note: test concentration or dose not given here. It counts as functional.
Experiment [12] concerns Streptococcus pyogenes. Put plainly: Antibacterial activity against Streptococcus pyogenes. The class given is functional.
For experiment [13], the system named is Aspergillus fumigatus. The experiment is described as follows: Antifungal activity against Aspergillus fumigatus. It counts as functional.
For experiment [14], the system named is Microsporum canis. Put plainly: Antifungal activity against Microsporum canis. The class given is functional.
Experiment [15] concerns Trichophyton benhamiae. Put plainly: Antifungal activity against Trichophyton mentagrophytes. It counts as functional, trychophyton mentagrophytes.
The nature of experiment [16]: Ratio of animals cured to that of animals infected, tested in vivo for antifungal activity against cutaneous candidosis in guinea pig; 3/4. It counts as functional.
Experiment [17] relates to Saprolegnia. Put plainly: Antifungal activity against Saprolegnia species. The class given is functional.
The nature of experiment [18]: Ratio of animals cured to that of animals infected, tested in vivo for antifungal activity against vaginal candidosis in rat; 0/2. Note: test concentration or dose not given here.
The nature of experiment [19]: Ratio of animals cured to that of animals infected, tested in vivo for antifungal activity against vaginal candidosis in rat; 2/4.
A short description of experiment [20]: Ratio of animals cured to that of animals infected, tested in vivo for antifungal activity against cutaneous candidosis in guinea pig; 1/2. It counts as functional.
Experiment [21] in a line: Ratio of animals cured to that of animals […], Tested in vivo for antifungal activity against vaginal candidosis in rat; 1/2. It counts as functional.
Experiment [22] can be described thus: Ratio of animals cured to that of animals infected, tested in vivo for antifungal activity against cutaneous candidosis in guinea pig; 2/2. Note: test concentration or dose not given here. It counts as functional.
Experiment [23] is described as follows: Ratio of animals cured to that of animals […], Tested in vivo for antifungal activity against vaginal candidosis in rat; 0/6. The class given is functional.
Experiment [24] in a line: Ratio of animals cured to that of animals infected, tested in vivo for antifungal activity against cutaneous candidosis in guinea pig; 4/13. It counts as functional.
The nature of experiment [25]: Ratio of animals cured to that of animals infected, tested in vivo for antifungal activity against vaginal candidosis in rat; 2/2.
Experiment [26] is described as follows: Ratio of animals cured to that of animals […], Tested in vivo for antifungal activity against vaginal candidosis in rat; 0/2. It counts as functional.
In experiment [27] the test system is Phialophora verrucosa. Put plainly: compound was tested for antifungal activity against Phialophora verrucosa. The class given is functional.
Experiment [28] relates to Trichophyton mentagrophytes. The experiment is described as follows: Compound was tested for antifungal activity against Trichophyton mentagrophytes.
The nature of experiment [29]: Ratio of animals cured to that of animals infected, tested in vivo for antifungal activity against vaginal candidosis in rat; 1/2.

As for `Clc1ccc(C2COC(Cn3ccnc3)(c3ccccc3)O2)c(Cl)c1` (configuration not stated), the Inhibition in experiment [1] was 10 µg/mL; in experiment [2], greater than 100 µg/mL; in experiment [3], 100 µg/mL; in experiment [4], greater than 100 µg/mL; in experiment [5] it was 10 µg/mL; in experiment [6], 10 µg/mL. For the same molecule, the Inhibition was 10 µg/mL in experiment [7]; 100 µg/mL in experiment [8]; less than 1 µg/mL in [9]; 100 µg/mL in [10]; 1 µg/mL in experiment [12]; 10 µg/mL in experiment [13]. In addition, the Inhibition in experiment [14] is 10 µg/mL; in experiment [15] it was less than 1 µg/mL. In addition, in [11], the Ratio turned out to be 0.
With `Clc1ccc(C2(Cn3ccnc3)OCC(c3ccc(Br)cc3)O2)c(Cl)c1` (configuration not stated), the Inhibition in [1] was determined as 10 µg/mL; in experiment [2] it was 100 µg/mL; in [4], 10 µg/mL; in experiment [5] it was 1 µg/mL; in experiment [6] it was 10 µg/mL; in [17], 100 µg/mL. Moreover, the Inhibition in experiment [7] was less than 1 µg/mL; in experiment [8] it was 100 µg/mL; in experiment [9], less than 1 µg/mL; in experiment [10] it was 10 µg/mL; in [12], 1 µg/mL; in [13], less than 1 µg/mL. In addition, the Inhibition in experiment [14] and in experiment [15] was less than 1 µg/mL throughout. The Ratio in experiment [16] is 0.75; in [18] it was 0.
Consider `Fc1ccc(C2COC(Cn3ccnc3)(c3ccc(Br)cc3)O2)cc1` (configuration not stated), for which the Inhibition in experiment [1] stood at 100 µg/mL; in experiment [2], 100 µg/mL; in [4], 100 µg/mL; in experiment [5] it was 10 µg/mL; in experiment [6], 10 µg/mL; in experiment [17], 100 µg/mL. Moreover, the Inhibition is 10 µg/mL in [7]; 100 µg/mL in [8]; less than 1 µg/mL in experiment [9]; less than 1 µg/mL in experiment [10]; less than 1 µg/mL in experiment [12]; less than 1 µg/mL in experiment [13]. Besides, the Inhibition in experiment [14] and in [15] was less than 1 µg/mL throughout. In addition, the Ratio in experiment [19] was found to be 2; in experiment [20], 0.5.
As to `Clc1ccc(C2(Cn3ccnc3)OCC(c3ccccc3Cl)O2)cc1` (configuration not stated), the Inhibition in [1] is 10 µg/mL; in experiment [2] it was greater than 100 µg/mL; in experiment [4], greater than 100 µg/mL; in experiment [5], 1 µg/mL; in [6], greater than 1 µg/mL; in experiment [17], 10 µg/mL. Moreover, the Inhibition is 10 µg/mL in experiment [7]; 100 µg/mL in [8]; less than 1 µg/mL in experiment [9]; 100 µg/mL in experiment [10]; 1 µg/mL in experiment [12]; 100 µg/mL in [13]. Further, the figures for the Inhibition in experiment [14] and in experiment [15] were 10 µg/mL and less than 1 µg/mL, respectively. Besides, the Ratio in [21] was found to be 1; in experiment [22] it was 2.
`Clc1ccc(COC(Cn2ccnc2)c2ccc(Cl)cc2Cl)c(Cl)c1` (configuration not stated) [MICONAZOLE]: the Inhibition was 10 µg/mL in experiment [1]; 10 µg/mL in [2]; 100 µg/mL in [4]; less than 1 µg/mL in experiment [5]; 1 µg/mL in experiment [6]; 10 µg/mL in experiment [17]. In addition, the Inhibition was 1 µg/mL in experiment [7]; 100 µg/mL in experiment [8]; less than 1 µg/mL in [9]; greater than 100 µg/mL in [10]; less than 1 µg/mL in [12]; 10 µg/mL in experiment [13]. The Inhibition was 1 µg/mL in [14] and less than 1 µg/mL in experiment [15]. Besides, the values for the Ratio in experiment [23] and in experiment [24] were 0 and 0.31, respectively.
Consider `Clc1ccc(C2(Cn3ccnc3)OCC(c3ccc(Br)cc3)O2)cc1` (configuration not stated), for which the Inhibition in experiment [1] is 10 µg/mL; in experiment [2], 10 µg/mL; in experiment [4], 10 µg/mL; in [5] it was less than 1 µg/mL; in experiment [6] it was 10 µg/mL; in [17], less than 1 µg/mL. The Inhibition was less than 1 µg/mL in experiment [7]; 100 µg/mL in experiment [8]; less than 1 µg/mL in experiment [9]; 10 µg/mL in experiment [10]; less than 1 µg/mL in [12]; less than 1 µg/mL in [13]. The Inhibition in [14] and in experiment [15] was less than 1 µg/mL each time. For the same molecule, the values for the Ratio in experiment [25] and in [11] were 2 and 0, respectively.
For the molecule `Clc1ccc(C2(Cn3ccnc3)OCC(CCc3ccccc3)O2)c(Cl)c1` (configuration not stated), the Inhibition in [1] is 10 µg/mL; in experiment [2], 100 µg/mL; in [4], 10 µg/mL; in experiment [5] it was less than 1 µg/mL; in experiment [6], less than 1 µg/mL; in experiment [17], 100 µg/mL. For the same molecule, the Inhibition in experiment [7] is less than 1 µg/mL; in experiment [27], 100 µg/mL; in experiment [9] it was less than 1 µg/mL; in experiment [10] it was 10 µg/mL; in experiment [12], less than 1 µg/mL; in experiment [13], less than 1 µg/mL. Moreover, the Inhibition in experiment [14] and in experiment [15] was less than 1 µg/mL in each case. For the same molecule, the Ratio in experiment [26] was determined as 0.
Consider `Clc1ccc(CCC2COC(Cn3ccnc3)(c3ccc(Cl)cc3Cl)O2)cc1` (configuration not stated), for which the Inhibition in [1] is 10 µg/mL; in [2] it was 10 µg/mL; in experiment [4], 10 µg/mL; in experiment [5], less than 1 µg/mL; in experiment [6], 1 µg/mL; in experiment [17], 100 µg/mL. The Inhibition is less than 1 µg/mL in experiment [7]; 100 µg/mL in [8]; 1 µg/mL in [9]; 10 µg/mL in experiment [10]; less than 1 µg/mL in experiment [12]; 10 µg/mL in experiment [13]. Besides, the Inhibition in experiment [14] is 1 µg/mL; in [15] it was less than 1 µg/mL. The Ratio in experiment [19] is 2; in [11], 0.
`Cc1ccc(C2COC(Cn3ccnc3)(c3ccc(Br)cc3)O2)cc1` (configuration not stated): the Inhibition is 10 µg/mL in experiment [1]; 10 µg/mL in experiment [28]; 10 µg/mL in experiment [2]; greater than 100 µg/mL in [4]; 1 µg/mL in experiment [5]; 100 µg/mL in experiment [6]. Besides, the Inhibition is 100 µg/mL in experiment [17]; 10 µg/mL in [7]; 100 µg/mL in experiment [8]; less than 1 µg/mL in experiment [9]; 10 µg/mL in experiment [10]; 10 µg/mL in experiment [12]. Also, the Inhibition in experiment [13] and in [14] was less than 1 µg/mL in each case. In addition, the Ratio in experiment [29] amounted to 1.
For the molecule `Cc1ccc(C2(Cn3ccnc3)OCC(c3ccccc3Cl)O2)cc1` (configuration not stated), the Inhibition was 100 µg/mL in experiment [1]; 100 µg/mL in experiment [2]; greater than 100 µg/mL in [4]; 1 µg/mL in experiment [5]; 10 µg/mL in experiment [6]; 100 µg/mL in experiment [17]. The Inhibition was 100 µg/mL in experiment [7]; 100 µg/mL in [8]; less than 1 µg/mL in experiment [9]; 100 µg/mL in experiment [10]; less than 1 µg/mL in experiment [12]; 100 µg/mL in experiment [13]. Further, the Inhibition in [14] was 10 µg/mL; in experiment [15] it was less than 1 µg/mL. For the same molecule, the values for the Ratio in experiment [21] and in [11] were 0.5 and 0, respectively.
